# Target: Beta-3 Adrenergic Receptor (Homo sapiens (Human), UniProt P13945)
# Assay: HTRF cAMP antagonist assay (IC50 determination)
# Format: cell-based
# Settings: CHO-K1 cells stably expressing recombinant receptor; antagonism of isoproterenol at EC90; cAMP readout
# Procedure, shortened: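 Antagonist mode: isoproterenol at its predetermined EC90 added after compound to recombinant CHO-K1 cells in IBMX-containing PBS, 1 h, room temperature. Compounds tested as 5-fold, 10-point dilutions, top final typically 10 or 100 μM. HTRF signal converted to cAMP via standard curve, giving IC50.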
# Chain of Beta-3 Adrenergic Receptor (P13945 whole entry, species assumed): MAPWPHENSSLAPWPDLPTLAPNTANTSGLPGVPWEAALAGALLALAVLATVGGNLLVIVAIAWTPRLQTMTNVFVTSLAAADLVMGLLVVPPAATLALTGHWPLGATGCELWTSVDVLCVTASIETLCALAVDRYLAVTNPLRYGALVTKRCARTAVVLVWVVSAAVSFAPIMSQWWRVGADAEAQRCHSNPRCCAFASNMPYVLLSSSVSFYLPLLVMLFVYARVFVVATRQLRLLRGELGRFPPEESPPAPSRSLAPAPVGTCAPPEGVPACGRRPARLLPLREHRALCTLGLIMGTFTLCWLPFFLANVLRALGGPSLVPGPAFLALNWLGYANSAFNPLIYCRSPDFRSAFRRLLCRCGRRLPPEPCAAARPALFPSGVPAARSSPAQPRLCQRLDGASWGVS
row,IC50,SMILES
1,24.8 nM,"CN1CCOc2ncc(S(=O)(=O)N3CCC4(CC3)C[C@@H](NC[C@H](O)COc3cccc(S(=O)(=O)C(F)(F)CO)c3)CO4)cc21 [Compound 156, (S)-1-(3-(1,1-difluoro-2-hydroxyethylsulfonyl)phenoxy)-3-((R)-8-(1-methyl-2,3-dihydro-1H-pyrido[2,3-b][1,4]oxazin-7-ylsulfonyl)-1-oxa-8-azaspiro[4.5]decan-3-ylamino)propan-2-ol]"
2,25.7 nM,"NCc1ccc(-c2cccc(S(=O)(=O)N3CCC4(CC3)C[C@@H](NC[C@H](O)COc3cccc(S(=O)(=O)C5(CO)CC5)c3)CO4)c2)cc1 [Compound 157, (S)-1-((R)-8-(4′-(aminomethyl)biphenyl-3-ylsulfonyl)-1-oxa-8-azaspiro[4.5]decan-3-ylamino)-3-(3-(1-(hydroxymethyl)cyclopropylsulfonyl)phenoxy)propan-2-ol]"
3,27.3 nM,"CCOc1ccc(-c2ccc(CN)cc2)cc1S(=O)(=O)N1CCC2(CC1)C[C@@H](NC[C@H](O)COc1cccc(S(=O)(=O)C3(CO)CC3)c1)CO2 [Compound 158, (S)-1-((R)-8-(4′-(aminomethyl)-4-ethoxybiphenyl-3-ylsulfonyl)-1-oxa-8-azaspiro[4.5]decan-3-ylamino)-3-(3-(1-(hydroxymethyl)cyclopropylsulfonyl)phenoxy)propan-2-ol]"
4,178 nM,"CN1CCOc2ncc(S(=O)(=O)N3CCC4(CC3)C[C@@H](NC[C@H](O)COc3cccc(S(=O)(=O)CC(N)=O)c3)CO4)cc21 [Compound 159, 2-(3-((S)-2-hydroxy-3-((R)-8-(1-methyl-2,3-dihydro-1H-pyrido[2,3-b][1,4]oxazin-7-ylsulfonyl)-1-oxa-8-azaspiro[4.5]decan-3-ylamino)propoxy)phenylsulfonyl)acetamide]"
5,11.6 nM,"CCOc1ccc(-c2ccc(CN)cc2)cc1S(=O)(=O)N1CCC2(CC1)C[C@H](NC[C@H](O)COc1cccc(S(=O)(=O)C3CC3)c1)CO2 [Compound 160, (S)-1-((S)-8-(4′-(aminomethyl)-4-ethoxybiphenyl-3-ylsulfonyl)-1-oxa-8-azaspiro[4.5]decan-3-ylamino)-3-(3-(cyclopropylsulfonyl)phenoxy)propan-2-ol]"
6,21.1 nM,"CCOc1ccc(-c2ccc(CN)cc2)cc1S(=O)(=O)N1CCC2(CC1)C[C@@H](NC[C@H](O)COc1cccc(S(=O)(=O)C(F)(F)CO)c1)CO2 [Compound 161, (S)-1-((R)-8-(4′-(aminomethyl)-4-ethoxybiphenyl-3-ylsulfonyl)-1-oxa-8-azaspiro[4.5]decan-3-ylamino)-3-(3-(1,1-difluoro-2-hydroxyethylsulfonyl)phenoxy)propan-2-ol]"
7,29.5 nM,"NCc1ccc(-c2ccc(F)c(S(=O)(=O)N3CCC4(CC3)C[C@H](NC[C@H](O)COc3cccc(S(=O)(=O)C5(CO)CC5)c3)CO4)c2)cc1 [Compound 162, (S)-1-((S)-8-(4′-(aminomethyl)-4-fluorobiphenyl-3-ylsulfonyl)-1-oxa-8-azaspiro[4.5]decan-3-ylamino)-3-(3-(1-(hydroxymethyl)cyclopropylsulfonyl)phenoxy)propan-2-ol]"
8,27.7 nM,"NCc1ccc(-c2cccc(S(=O)(=O)N3CCC4(CC3)C[C@H](NC[C@H](O)COc3cccc(S(=O)(=O)C5(CO)CC5)c3)CO4)c2)cc1 [Compound 164, (S)-1-((S)-8-(4′-(aminomethyl)biphenyl-3-ylsulfonyl)-1-oxa-8-azaspiro[4.5]decan-3-ylamino)-3-(3-(1-(hydroxymethyl)cyclopropylsulfonyl)phenoxy)propan-2-ol]"
9,64.4 nM,"CCOc1ccc(-c2ccc(CNC(C)C)cc2)cc1S(=O)(=O)N1CCC2(CC1)C[C@@H](NC[C@H](O)COc1cccc(S(=O)(=O)C3(CO)CC3)c1)CO2 [Compound 165, (S)-1-((R)-8-(4-ethoxy-4′-((isopropylamino)methyl)biphenyl-3-ylsulfonyl)-1-oxa-8-azaspiro[4.5]decan-3-ylamino)-3-(3-(1-(hydroxymethyl)cyclopropylsulfonyl)phenoxy)propan-2-ol]"
10,51.2 nM,"CC(C)Oc1ccc(-c2ccc(CN)cc2)cc1S(=O)(=O)N1CCC2(CC1)C[C@H](NC[C@H](O)COc1cccc(S(=O)(=O)C3CC3)c1)CO2 [Compound 166, (S)-1-((S)-8-(4′-(aminomethyl)-4-isopropoxybiphenyl-3-ylsulfonyl)-1-oxa-8-azaspiro[4.5]decan-3-ylamino)-3-(3-(cyclopropylsulfonyl)phenoxy)propan-2-ol]"
11,15.4 nM,"CCOc1ccc(-c2ccc(CN)cc2)cc1S(=O)(=O)N1CCC2(CC1)C[C@H](NC[C@H](O)COc1cccc(S(=O)(=O)C(F)(F)CO)c1)CO2 [Compound 168, (S)-1-((S)-8-(4′-(aminomethyl)-4-ethoxybiphenyl-3-ylsulfonyl)-1-oxa-8-azaspiro[4.5]decan-3-ylamino)-3-(3-(1,1-difluoro-2-hydroxyethylsulfonyl)phenoxy)propan-2-ol]"
12,17.5 nM,"NCc1ccc(-c2ccc(F)c(S(=O)(=O)N3CCC4(CC3)C[C@@H](NC[C@H](O)COc3cccc(S(=O)(=O)C5(CO)CC5)c3)CO4)c2)cc1 [Compound 169, (S)-1-((R)-8-(4′-(aminomethyl)-4-fluorobiphenyl-3-ylsulfonyl)-1-oxa-8-azaspiro[4.5]decan-3-ylamino)-3-(3-(1-(hydroxymethyl)cyclopropylsulfonyl)phenoxy)propan-2-ol]"
13,416 nM,"Cc1ccc(-c2cccc(S(=O)(=O)N3CCC4(CC3)C[C@@H](NC[C@H](O)COc3cccc(S(=O)(=O)C5(CO)CC5)c3)CO4)c2)cc1 [Compound 170, (S)-1-(3-(1-(hydroxymethyl)cyclopropylsulfonyl)phenoxy)-3-((R)-8-(4′-methylbiphenyl-3-ylsulfonyl)-1-oxa-8-azaspiro[4.5]decan-3-ylamino)propan-2-ol]"
14,25 nM,"CC(C)Oc1ccc(-c2ccc(CN)cc2)cc1S(=O)(=O)N1CCC2(CC1)C[C@@H](NC[C@H](O)COc1cccc(S(=O)(=O)C3CC3)c1)CO2 [Compound 171, (S)-1-((R)-8-(4′-(aminomethyl)-4-isopropoxybiphenyl-3-ylsulfonyl)-1-oxa-8-azaspiro[4.5]decan-3-ylamino)-3-(3-(cyclopropylsulfonyl)phenoxy)propan-2-ol]"
15,50.3 nM,"CCOc1ccc(-c2ccc(C3(N)CC3)cc2)cc1S(=O)(=O)N1CCC2(CC1)C[C@@H](NC[C@H](O)COc1cccc(S(=O)(=O)C3(CO)CC3)c1)CO2 [Compound 172, (S)-1-((R)-8-(4′-(1-aminocyclopropyl)-4-ethoxybiphenyl-3-ylsulfonyl)-1-oxa-8-azaspiro[4.5]decan-3-ylamino)-3-(3-(1-(hydroxymethyl)cyclopropylsulfonyl)phenoxy)propan-2-ol]"
16,31.2 nM,"NC1(c2ccc(-c3cccc(S(=O)(=O)N4CCC5(CC4)C[C@@H](NC[C@H](O)COc4cccc(S(=O)(=O)C6(CO)CC6)c4)CO5)c3)cc2)CC1 [Compound 173, (S)-1-((R)-8-(4′-(1-aminocyclopropyl)biphenyl-3-ylsulfonyl)-1-oxa-8-azaspiro[4.5]decan-3-ylamino)-3-(3-(1-(hydroxymethyl)cyclopropylsulfonyl)phenoxy)propan-2-ol]"
17,699 nM,"CCOc1ccc(-c2ccc(C(C)(C)CN)cc2)cc1S(=O)(=O)N1CCC2(CC1)C[C@@H](NC[C@H](O)COc1cccc(S(=O)(=O)C3(CO)CC3)c1)CO2 [Compound 174, (S)-1-((R)-8-(4′-(1-amino-2-methylpropan-2-yl)-4-ethoxybiphenyl-3-ylsulfonyl)-1-oxa-8-azaspiro[4.5]decan-3-ylamino)-3-(3-(1-(hydroxymethyl)cyclopropylsulfonyl)phenoxy)propan-2-ol]"
18,716 nM,"CCOc1ccc(-c2ccc(CCNC(C)=O)cc2)cc1S(=O)(=O)N1CCC2(CC1)C[C@@H](NC[C@H](O)COc1cccc(S(=O)(=O)C3(CO)CC3)c1)CO2 [Compound 175, N-(2-(4′-ethoxy-3′-((R)-3-((S)-2-hydroxy-3-(3-(1-(hydroxymethyl)cyclopropylsulfonyl)phenoxy)propylamino)-1-oxa-8-azaspiro[4.5]decan-8-ylsulfonyl)biphenyl-4-yl)ethyl)acetamide]"
19,58.4 nM,"CCOc1ccc(-c2ccc(C(C)(C)CN)cc2)cc1S(=O)(=O)N1CCC2(CC1)C[C@H](NC[C@H](O)COc1cccc(S(=O)(=O)C3(CO)CC3)c1)CO2 [Compound 176, (S)-1-((S)-8-(4′-(1-amino-2-methylpropan-2-yl)-4-ethoxybiphenyl-3-ylsulfonyl)-1-oxa-8-azaspiro[4.5]decan-3-ylamino)-3-(3-(1-(hydroxymethyl)cyclopropylsulfonyl)phenoxy)propan-2-ol]"
20,50.6 nM,"CCOc1ccc(-c2ccc(CCNC(C)=O)cc2)cc1S(=O)(=O)N1CCC2(CC1)C[C@H](NC[C@H](O)COc1cccc(S(=O)(=O)C3(CO)CC3)c1)CO2 [Compound 177, N-(2-(4′-ethoxy-3′-((S)-3-((S)-2-hydroxy-3-(3-(1-(hydroxymethyl)cyclopropylsulfonyl)phenoxy)propylamino)-1-oxa-8-azaspiro[4.5]decan-8-ylsulfonyl)biphenyl-4-yl)ethyl)acetamide]"
21,49.1 nM,"CCOc1ccc(-c2ccc(CN)cc2)cc1S(=O)(=O)N1CCC2(CC1)C[C@@H](NC[C@H](O)COc1cccc(S(=O)(=O)CC(N)=O)c1)CO2 [Compound 179, 2-(3-((S)-3-((R)-8-(4′-(aminomethyl)-4-ethoxybiphenyl-3-ylsulfonyl)-1-oxa-8-azaspiro[4.5]decan-3-ylamino)-2-hydroxypropoxy)phenylsulfonyl)acetamide]"
22,30.7 nM,"CC(C)(CN)c1ccc(-c2cccc(S(=O)(=O)N3CCC4(CC3)C[C@H](NC[C@H](O)COc3cccc(S(=O)(=O)C5(CO)CC5)c3)CO4)c2)cc1 [Compound 180, (S)-1-((S)-8-(4′-(1-amino-2-methylpropan-2-yl)biphenyl-3-ylsulfonyl)-1-oxa-8-azaspiro[4.5]decan-3-ylamino)-3-(3-(1-(hydroxymethyl)cyclopropylsulfonyl)phenoxy)propan-2-ol]"

# Source: patent publication US10927123B2, “Modulators of the beta-3 adrenergic receptor useful for the treatment or prevention of disorders related thereto” (Arena Pharmaceuticals, Inc., priority 2016, dated 2021)
